Test results: article PMC8645336, “Benchmarking a highly selective USP30 inhibitor for enhancement of mitophagy and pexophagy” (Life Science Alliance, 2021)

Key:
USP5 = target: T1, USP5 (Homo sapiens, UniProt P45974); experiment: biochemical; set-up: Ubiquigent DUB profiler selectivity panel, remaining enzyme activity as % of control; conditions: read-out: % of control remaining
T1 sequence (P45974 1-858): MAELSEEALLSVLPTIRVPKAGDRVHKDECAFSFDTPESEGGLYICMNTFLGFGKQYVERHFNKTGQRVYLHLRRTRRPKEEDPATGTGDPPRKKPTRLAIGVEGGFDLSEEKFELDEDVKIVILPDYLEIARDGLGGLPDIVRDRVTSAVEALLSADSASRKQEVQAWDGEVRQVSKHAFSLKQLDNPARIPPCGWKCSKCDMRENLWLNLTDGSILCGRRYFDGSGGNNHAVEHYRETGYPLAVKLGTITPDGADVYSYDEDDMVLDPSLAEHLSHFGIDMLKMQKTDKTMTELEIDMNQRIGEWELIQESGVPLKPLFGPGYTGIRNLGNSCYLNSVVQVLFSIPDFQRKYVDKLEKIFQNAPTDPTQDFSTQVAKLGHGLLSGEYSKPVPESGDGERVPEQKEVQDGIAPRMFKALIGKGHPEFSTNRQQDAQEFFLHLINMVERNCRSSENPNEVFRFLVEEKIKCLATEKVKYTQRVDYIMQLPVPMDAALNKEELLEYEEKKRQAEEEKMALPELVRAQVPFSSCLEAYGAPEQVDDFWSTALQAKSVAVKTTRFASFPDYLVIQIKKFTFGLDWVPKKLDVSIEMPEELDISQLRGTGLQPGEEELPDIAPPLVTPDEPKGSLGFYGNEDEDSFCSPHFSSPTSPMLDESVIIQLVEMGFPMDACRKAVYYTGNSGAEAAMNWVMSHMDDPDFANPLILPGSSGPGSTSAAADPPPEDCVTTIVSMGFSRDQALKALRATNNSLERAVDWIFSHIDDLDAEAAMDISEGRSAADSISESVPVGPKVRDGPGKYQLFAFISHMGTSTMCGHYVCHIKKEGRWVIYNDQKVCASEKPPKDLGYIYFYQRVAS
Summary of the method: (§1)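 In YFP-PRKN-overexpressing hTERT-RPE1 cells, 1 h antimycin A plus oligomycin A (1 μM each) with CMPD-39, then Western blot of TOMM20 ubiquitylation. Target engagement: 2 h compound, then 10 min HA-Ub-PA at 37°C, read as USP30 shift. DUB panel (>40 enzymes) screened at 1-100 μM.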

AMSH-LP = target: T2, AMSH-LP (Homo sapiens, UniProt Q96FJ0); experiment: biochemical; set-up: Ubiquigent DUB profiler selectivity panel, remaining enzyme activity as % of control; conditions: read-out: % of control remaining
T2 construct: gene STAMBPL1
T2 sequence (Q96FJ0 1-436): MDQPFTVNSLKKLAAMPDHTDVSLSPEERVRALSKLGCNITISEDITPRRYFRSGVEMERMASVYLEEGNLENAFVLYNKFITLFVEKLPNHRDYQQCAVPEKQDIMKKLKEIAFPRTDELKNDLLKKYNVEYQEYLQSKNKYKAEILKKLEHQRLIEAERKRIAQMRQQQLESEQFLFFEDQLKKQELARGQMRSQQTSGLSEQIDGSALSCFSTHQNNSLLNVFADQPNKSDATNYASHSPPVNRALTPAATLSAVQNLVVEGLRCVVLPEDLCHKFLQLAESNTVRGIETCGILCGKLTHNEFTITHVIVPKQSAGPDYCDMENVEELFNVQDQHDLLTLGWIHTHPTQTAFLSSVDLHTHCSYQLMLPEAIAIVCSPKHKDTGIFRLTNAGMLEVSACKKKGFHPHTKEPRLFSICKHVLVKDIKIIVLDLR
Summary of the method: as §1

remaining activity at 1 µM (USP5): 104% | remaining activity at 10 µM (USP5): 101% | remaining activity at 100 µM (USP5): 106% | remaining activity at 1 µM (AMSH-LP): 109% | remaining activity at 10 µM (AMSH-LP): 102% | remaining activity at 100 µM (AMSH-LP): 112%
SMILES: CC(C)(C)NS(=O)(=O)c1ccc(NC(=O)[C@H](Cc2ccccc2)NC(=O)c2ccc(F)cc2)cc1 [compound 39, CMPD-39]
